Data on one substance can be found in PMC4338649 (International Journal of Endocrinology and Metabolism, 2014).

The test system of the assay is infants with central diabetes insipidus. Put plainly: Pharmacodynamics. Format: in vivo. The conditions noted are these: Case 2, IV administration of dDAVP; confirmed diagnosis of CDI.

desmopressin [dDAVP]: the “urine output and osmolality after IV administration” value is “Normalization of urine output and osmolality”.
